pIC50: −log10 of the molar value.

These results are taken from ChEMBL document CHEMBL2384934, “Discovery of 3-phenyl-1H-5-pyrazolylamine derivatives containing a urea pharmacophore as potent and efficacious inhibitors of FMS-like tyrosine kinase-3 (FLT3)” (Bioorg Med Chem, 2013).

Data set [1] can be described thus: AUC (0 to infinity) in Sprague-Dawley rat at 2 mg/kg, iv. In kind it is ADME, organism-based. Also on record: time infinity, dose 2 mg/kg, route intravenous. To be noted: plasma.
The nature of data set [2]: Volume of distribution at steady state in Sprague-Dawley rat at 2 mg/kg, iv. Type of data set: ADME, organism-based. On the set-up: dose 2 mg/kg, route intravenous. To be noted: in vivo, read-out: Vdss.
For data set [3], the target named is Vascular endothelial growth factor receptor 2 (Homo sapiens, UniProt P35968). The data set can be described thus: biochemical. Type of data set: cell-based, Sf9.
Description: Inhibition of recombinant GST tagged VEGFR2 (789 to 1356) (unknown origin) transfected in insect sf9 cells after 120 mins by wallac counting analysis
For data set [4], the target named is T1, Receptor-type tyrosine-protein kinase FLT3 (Homo sapiens, UniProt P36888).
T1 sequence (P36888 whole entry): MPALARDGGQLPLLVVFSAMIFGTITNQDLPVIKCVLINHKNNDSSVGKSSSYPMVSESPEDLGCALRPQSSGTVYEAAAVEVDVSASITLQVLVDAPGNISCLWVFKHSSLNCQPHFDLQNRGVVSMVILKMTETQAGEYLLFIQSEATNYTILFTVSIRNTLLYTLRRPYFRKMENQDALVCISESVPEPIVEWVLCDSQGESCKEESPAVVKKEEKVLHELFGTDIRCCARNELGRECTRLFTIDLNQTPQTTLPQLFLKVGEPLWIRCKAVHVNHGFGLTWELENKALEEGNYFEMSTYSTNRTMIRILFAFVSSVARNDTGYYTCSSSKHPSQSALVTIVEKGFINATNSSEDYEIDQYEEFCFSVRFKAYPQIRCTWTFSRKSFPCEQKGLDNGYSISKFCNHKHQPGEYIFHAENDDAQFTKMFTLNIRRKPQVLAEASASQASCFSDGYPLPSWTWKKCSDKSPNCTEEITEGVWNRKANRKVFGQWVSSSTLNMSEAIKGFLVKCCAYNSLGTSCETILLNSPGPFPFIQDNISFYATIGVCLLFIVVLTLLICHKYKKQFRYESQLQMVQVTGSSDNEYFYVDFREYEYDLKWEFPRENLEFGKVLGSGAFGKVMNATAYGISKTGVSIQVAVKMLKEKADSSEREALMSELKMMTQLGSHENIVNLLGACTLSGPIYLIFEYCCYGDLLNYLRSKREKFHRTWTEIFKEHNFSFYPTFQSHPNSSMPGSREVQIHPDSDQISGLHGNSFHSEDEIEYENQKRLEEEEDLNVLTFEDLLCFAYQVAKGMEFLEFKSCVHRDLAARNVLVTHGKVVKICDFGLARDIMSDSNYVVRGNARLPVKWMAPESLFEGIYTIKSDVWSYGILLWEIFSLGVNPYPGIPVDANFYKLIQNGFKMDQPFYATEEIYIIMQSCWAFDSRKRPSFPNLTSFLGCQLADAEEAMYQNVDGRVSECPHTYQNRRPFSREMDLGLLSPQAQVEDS
The experiment in a line: biochemical. In kind it is cell-based, Sf9.
Description: Inhibition of wild type GST tagged FLT3 kinase (567 to 993) (unknown origin) transfected in insect sf9 cells after 4 hrs by wallac counting analysis

Data set [5] has as its target T2, Aurora kinase A (Homo sapiens, UniProt O14965).
T2 sequence (O14965 whole entry): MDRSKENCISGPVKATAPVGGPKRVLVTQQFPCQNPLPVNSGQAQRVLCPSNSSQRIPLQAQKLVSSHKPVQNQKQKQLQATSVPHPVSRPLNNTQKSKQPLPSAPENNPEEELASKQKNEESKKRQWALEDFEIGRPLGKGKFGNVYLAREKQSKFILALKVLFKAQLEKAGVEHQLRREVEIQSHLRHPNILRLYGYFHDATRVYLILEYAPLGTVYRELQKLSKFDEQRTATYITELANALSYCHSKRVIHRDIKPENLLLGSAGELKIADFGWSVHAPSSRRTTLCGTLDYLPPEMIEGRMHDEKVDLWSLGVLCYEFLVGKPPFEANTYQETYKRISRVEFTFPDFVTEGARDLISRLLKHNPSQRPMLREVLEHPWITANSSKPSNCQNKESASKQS
The experiment in a line: biochemical.
Description: Inhibition of recombinant GST tagged Aurora A kinase (123 to 401) (unknown origin) transfected in insect sf9 cells after 90 mins by wallac counting analysis

A short description of data set [6]: Half life in Sprague-Dawley rat at 2 mg/kg, iv. Type of data set: ADME, organism-based. Also on record: dose 2 mg/kg, route intravenous. As to conditions: in vivo.
The nature of data set [7]: Oral bioavailability in Sprague-Dawley rat at 10 mg/kg. Type of data set: ADME, organism-based. As to conditions: in vivo.
Data set [8] concerns MOLM-13. The experiment in a line: cells. To be noted: Homo sapiens, MOLM-13, 72 h.
A short description of data set [9]: Plasma clearance in Sprague-Dawley rat at 2 mg/kg, iv. Type of data set: ADME, organism-based. On the set-up: dose 2 mg/kg, route intravenous.

Chain of Vascular endothelial growth factor receptor 2 (P35968 whole entry): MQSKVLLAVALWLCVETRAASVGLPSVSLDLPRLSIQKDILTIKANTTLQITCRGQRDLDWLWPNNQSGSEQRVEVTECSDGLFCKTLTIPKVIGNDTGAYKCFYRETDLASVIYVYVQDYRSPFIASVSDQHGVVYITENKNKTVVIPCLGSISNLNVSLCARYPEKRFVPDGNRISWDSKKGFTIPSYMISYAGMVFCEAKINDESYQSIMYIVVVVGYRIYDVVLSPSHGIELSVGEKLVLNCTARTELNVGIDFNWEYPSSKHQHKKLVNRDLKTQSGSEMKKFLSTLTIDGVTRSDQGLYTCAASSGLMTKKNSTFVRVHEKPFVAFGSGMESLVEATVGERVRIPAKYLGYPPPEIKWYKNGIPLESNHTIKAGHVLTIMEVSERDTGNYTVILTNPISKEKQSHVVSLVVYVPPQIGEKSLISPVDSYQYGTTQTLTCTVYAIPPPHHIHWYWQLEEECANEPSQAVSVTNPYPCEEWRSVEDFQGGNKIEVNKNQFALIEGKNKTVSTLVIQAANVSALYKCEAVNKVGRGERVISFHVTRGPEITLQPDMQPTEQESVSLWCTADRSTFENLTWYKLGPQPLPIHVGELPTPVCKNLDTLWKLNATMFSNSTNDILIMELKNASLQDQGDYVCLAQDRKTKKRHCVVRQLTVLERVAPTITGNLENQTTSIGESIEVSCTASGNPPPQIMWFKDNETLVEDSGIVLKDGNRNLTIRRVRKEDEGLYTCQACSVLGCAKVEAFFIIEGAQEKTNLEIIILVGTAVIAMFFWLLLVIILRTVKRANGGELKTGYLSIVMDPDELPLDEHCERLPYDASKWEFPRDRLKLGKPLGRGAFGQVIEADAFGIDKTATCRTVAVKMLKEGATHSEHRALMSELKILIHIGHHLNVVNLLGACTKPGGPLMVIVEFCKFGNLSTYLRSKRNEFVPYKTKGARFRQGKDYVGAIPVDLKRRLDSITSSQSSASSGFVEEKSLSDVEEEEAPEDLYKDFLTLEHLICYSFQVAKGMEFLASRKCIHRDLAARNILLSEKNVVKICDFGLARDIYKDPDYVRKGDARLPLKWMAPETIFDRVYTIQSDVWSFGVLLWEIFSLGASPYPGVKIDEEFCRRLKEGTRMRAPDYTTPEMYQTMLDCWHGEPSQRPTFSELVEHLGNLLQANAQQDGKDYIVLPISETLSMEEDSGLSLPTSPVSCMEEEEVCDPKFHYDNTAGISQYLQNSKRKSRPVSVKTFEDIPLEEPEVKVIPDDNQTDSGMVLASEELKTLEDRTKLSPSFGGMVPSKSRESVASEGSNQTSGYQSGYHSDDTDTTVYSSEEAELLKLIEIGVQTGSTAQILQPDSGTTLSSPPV

What is called AUC(0-inf) is total exposure, with the tail of the curve extrapolated. Broadly, the pIC50 is the IC50 on a negative log10 scale, so that one unit is a factor of ten. Read a high pIC50 as a low IC50. A word on the half-life: it is the time in which the quantity being followed falls by half. The low end stands for rapid decline, the high end for slow decline. A word on the bioavailability: it is dose-corrected exposure relative to a reference, in per cent. Low values mean little systemic uptake, high ones much systemic uptake. Broadly, the GI50 is the concentration that inhibits growth by half. A low value points to more potent growth inhibition. As a reminder, the clearance is a measure of how efficiently the substance is removed, as volume per time. Turning to `Cc1cc(-c2cc(NC(=O)c3ccc(OCCN4CCOCC4)cc3)[nH]n2)ccc1NC(=O)Nc1cc(C(C)(C)C)on1`, in data set [1], the AUC(0-inf) came out at 2860 ng·h/mL. The Vd in data set [2] turned out to be 4.7 L/kg. Besides, the pIC50 in data set [3] is 7.57; in data set [4], 7.70; in data set [5] it was 7.16. Moreover, in [6], the half-life was 5.3 h. The molecule further returned a bioavailability in data set [7] of 4%. In [8], this molecule gave a 50% growth inhibitory concentration (GI50) of 8 nM. The molecule also had a clearance in data set [9] of 13.9 mL/min/kg.
